Columns and labels:
Assay in all cases: kinetic fluorescence endonuclease assay, purified enzyme
Format in all cases: biochemical
[1] = molecular target: T1, apurinic/apyrimidinic endonuclease 1 (APE1) (Homo sapiens, UniProt P27695)
[2] = molecular target: T1, apurinic/apyrimidinic endonuclease 1 (APE1); remark: listed apart in the source
R177A APE1 = R177A APE1 (Homo sapiens, UniProt P27695, R177A)
Chain of R177A APE1 (P27695 whole entry R177A): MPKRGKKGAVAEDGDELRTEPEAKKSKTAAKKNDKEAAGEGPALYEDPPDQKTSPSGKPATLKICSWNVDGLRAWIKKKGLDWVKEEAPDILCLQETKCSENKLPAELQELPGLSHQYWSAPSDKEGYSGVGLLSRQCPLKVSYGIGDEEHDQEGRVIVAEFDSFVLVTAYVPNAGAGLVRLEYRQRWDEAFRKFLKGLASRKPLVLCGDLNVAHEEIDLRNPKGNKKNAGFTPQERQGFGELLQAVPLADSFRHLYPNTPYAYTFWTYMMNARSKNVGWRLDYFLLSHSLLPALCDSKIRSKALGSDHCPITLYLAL

T1 sequence (P27695 whole entry): as the sequence (P27695 whole entry R177A) above, with A177R counted along it

IC50 [1] | EC50 [2] | EC50 (R177A APE1) | Compound
65000 nM |  |  | O=C(NCCO)c1cccnc1 [N-(2-hydroxyethyl)nicotinamide]
 | 820 nM | 2200 nM | O=C(NCCO[N+](=O)[O-])c1cccnc1 [nicorandil]

— PMC4867230 (DNA repair, 2016)
